What was measured:
Glucocorticoid receptor [1] = target: T1, Glucocorticoid receptor (Homo sapiens, UniProt P04150); format: functional
T1 sequence (P04150 whole entry): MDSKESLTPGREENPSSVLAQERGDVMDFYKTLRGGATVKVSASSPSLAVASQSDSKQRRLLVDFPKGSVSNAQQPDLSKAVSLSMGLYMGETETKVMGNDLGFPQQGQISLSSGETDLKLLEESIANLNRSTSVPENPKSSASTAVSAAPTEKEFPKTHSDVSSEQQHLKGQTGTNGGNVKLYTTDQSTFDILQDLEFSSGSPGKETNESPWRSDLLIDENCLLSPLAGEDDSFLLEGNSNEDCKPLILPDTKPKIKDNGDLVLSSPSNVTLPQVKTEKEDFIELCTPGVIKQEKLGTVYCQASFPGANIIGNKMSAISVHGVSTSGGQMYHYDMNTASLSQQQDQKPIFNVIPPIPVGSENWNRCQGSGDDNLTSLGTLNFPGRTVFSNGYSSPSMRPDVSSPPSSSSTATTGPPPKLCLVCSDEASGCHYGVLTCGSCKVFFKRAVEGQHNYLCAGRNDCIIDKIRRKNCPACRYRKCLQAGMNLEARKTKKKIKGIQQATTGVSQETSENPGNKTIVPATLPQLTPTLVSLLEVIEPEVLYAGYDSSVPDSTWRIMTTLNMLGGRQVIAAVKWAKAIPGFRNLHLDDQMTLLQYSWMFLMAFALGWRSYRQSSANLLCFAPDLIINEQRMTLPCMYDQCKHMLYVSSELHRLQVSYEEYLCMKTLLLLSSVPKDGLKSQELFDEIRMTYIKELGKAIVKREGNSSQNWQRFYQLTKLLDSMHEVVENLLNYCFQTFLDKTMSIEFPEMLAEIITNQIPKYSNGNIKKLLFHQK

[2] = target: Sodium channel protein type 5 subunit alpha (Homo sapiens, UniProt Q14524); format: functional, cell-based
Sodium channel protein type 5 subunit alpha, sequence (Q14524 whole entry): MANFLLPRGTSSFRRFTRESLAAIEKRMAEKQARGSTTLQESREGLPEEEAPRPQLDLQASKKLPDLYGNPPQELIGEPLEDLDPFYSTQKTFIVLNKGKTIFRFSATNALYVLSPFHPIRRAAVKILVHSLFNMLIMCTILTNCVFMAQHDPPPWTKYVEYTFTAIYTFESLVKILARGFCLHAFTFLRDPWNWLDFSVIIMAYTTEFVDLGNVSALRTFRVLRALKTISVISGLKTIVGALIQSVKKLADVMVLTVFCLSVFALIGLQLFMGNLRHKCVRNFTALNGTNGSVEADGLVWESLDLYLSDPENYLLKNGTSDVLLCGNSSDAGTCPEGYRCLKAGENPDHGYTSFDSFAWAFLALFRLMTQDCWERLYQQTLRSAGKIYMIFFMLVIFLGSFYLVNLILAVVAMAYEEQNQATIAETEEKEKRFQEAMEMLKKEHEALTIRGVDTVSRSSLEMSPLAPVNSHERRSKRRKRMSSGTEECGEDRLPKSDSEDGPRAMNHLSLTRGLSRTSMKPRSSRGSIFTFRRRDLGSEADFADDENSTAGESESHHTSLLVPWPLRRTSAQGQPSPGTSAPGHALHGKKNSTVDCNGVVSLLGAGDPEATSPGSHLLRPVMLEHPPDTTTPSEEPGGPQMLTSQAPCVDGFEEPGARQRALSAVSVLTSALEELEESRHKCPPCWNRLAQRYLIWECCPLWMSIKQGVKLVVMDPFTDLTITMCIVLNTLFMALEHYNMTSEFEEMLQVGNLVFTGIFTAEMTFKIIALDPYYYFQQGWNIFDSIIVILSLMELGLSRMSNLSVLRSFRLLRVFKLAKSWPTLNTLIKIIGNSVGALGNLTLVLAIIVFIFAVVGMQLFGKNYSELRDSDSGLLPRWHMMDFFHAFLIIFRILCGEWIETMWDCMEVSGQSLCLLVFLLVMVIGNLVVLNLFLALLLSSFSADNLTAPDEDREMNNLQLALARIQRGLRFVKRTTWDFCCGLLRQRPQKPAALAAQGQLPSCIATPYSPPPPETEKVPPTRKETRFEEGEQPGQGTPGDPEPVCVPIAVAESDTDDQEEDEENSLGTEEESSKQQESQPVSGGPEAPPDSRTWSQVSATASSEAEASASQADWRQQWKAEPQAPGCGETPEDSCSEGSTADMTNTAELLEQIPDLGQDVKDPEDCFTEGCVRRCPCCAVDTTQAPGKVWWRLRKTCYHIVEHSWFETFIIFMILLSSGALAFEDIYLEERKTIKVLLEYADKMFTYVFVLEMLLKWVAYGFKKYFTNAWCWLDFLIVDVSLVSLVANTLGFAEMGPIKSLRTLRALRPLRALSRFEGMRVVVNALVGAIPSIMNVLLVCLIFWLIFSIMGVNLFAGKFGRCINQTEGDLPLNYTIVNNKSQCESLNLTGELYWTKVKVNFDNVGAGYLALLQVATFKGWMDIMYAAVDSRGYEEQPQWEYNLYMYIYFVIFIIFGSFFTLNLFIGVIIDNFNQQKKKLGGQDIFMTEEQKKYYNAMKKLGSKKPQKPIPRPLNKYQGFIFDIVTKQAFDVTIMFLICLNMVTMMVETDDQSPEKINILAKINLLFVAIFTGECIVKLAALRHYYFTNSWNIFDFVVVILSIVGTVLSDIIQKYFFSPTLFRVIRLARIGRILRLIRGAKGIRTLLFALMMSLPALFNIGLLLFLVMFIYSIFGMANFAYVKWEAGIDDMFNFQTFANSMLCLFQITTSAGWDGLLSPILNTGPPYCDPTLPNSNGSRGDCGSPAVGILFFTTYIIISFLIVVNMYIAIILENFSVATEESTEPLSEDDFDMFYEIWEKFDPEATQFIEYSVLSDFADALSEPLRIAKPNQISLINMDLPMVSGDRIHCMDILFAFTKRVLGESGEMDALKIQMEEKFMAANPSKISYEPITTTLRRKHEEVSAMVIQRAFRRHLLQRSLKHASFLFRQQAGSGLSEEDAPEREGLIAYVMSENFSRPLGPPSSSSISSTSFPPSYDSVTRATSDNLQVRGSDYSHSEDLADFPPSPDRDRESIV

[3] = target: Epidermal growth factor receptor (Homo sapiens, UniProt P00533); format: functional
Epidermal growth factor receptor, sequence (P00533 whole entry): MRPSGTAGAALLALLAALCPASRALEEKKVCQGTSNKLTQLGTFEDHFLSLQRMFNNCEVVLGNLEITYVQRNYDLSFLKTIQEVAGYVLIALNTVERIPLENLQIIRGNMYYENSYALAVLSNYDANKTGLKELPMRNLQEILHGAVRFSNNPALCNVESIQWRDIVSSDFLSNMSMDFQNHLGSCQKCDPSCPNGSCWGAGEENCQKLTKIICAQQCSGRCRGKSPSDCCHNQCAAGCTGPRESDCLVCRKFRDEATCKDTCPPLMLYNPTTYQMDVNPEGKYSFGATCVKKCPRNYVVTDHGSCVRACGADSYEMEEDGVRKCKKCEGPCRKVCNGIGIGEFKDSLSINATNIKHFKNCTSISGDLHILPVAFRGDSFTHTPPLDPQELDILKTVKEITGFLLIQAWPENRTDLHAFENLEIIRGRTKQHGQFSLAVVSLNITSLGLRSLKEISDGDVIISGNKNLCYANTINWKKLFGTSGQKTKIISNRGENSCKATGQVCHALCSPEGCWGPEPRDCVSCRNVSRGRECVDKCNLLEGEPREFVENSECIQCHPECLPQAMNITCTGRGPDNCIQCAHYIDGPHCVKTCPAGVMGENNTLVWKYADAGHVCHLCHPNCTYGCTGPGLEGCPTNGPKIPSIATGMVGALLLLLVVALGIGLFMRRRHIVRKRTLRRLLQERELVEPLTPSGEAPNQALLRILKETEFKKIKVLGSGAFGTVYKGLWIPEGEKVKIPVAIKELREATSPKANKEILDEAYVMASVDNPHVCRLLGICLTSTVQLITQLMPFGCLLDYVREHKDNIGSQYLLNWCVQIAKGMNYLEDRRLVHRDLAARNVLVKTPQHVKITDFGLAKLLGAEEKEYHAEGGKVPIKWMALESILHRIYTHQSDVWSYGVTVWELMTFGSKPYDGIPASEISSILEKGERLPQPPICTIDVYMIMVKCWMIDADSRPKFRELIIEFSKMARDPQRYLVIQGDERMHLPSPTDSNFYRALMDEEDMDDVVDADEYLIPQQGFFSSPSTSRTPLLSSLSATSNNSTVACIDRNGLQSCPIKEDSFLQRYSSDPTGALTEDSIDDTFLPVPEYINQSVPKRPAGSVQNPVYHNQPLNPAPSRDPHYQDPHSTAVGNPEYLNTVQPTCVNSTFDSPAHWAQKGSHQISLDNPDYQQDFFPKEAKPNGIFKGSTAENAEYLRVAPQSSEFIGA

Estrogen receptor [4] = target: T2, Estrogen receptor (Homo sapiens, UniProt P03372); format: functional
T2 sequence (P03372 whole entry): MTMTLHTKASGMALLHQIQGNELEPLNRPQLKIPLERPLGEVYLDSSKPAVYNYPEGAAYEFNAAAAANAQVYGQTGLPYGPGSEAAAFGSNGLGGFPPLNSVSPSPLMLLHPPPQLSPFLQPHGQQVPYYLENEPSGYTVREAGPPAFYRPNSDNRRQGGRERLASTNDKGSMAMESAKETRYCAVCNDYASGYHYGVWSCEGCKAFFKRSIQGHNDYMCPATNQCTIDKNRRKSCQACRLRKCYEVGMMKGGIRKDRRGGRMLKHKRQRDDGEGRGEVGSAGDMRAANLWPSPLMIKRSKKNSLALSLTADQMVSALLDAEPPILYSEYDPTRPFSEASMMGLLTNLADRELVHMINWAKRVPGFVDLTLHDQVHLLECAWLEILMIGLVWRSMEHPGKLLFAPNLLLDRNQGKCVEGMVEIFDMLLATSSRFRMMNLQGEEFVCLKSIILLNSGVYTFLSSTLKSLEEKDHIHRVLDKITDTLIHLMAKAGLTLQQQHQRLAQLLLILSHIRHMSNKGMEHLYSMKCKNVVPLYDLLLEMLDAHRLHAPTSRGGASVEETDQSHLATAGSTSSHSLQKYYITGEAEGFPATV

Estrogen receptor [5] = target: T2, Estrogen receptor; format: functional; remark: listed apart in the source
[6] = target: Vascular endothelial growth factor receptor 2 (Homo sapiens, UniProt P35968); format: functional
Vascular endothelial growth factor receptor 2, sequence (P35968 whole entry): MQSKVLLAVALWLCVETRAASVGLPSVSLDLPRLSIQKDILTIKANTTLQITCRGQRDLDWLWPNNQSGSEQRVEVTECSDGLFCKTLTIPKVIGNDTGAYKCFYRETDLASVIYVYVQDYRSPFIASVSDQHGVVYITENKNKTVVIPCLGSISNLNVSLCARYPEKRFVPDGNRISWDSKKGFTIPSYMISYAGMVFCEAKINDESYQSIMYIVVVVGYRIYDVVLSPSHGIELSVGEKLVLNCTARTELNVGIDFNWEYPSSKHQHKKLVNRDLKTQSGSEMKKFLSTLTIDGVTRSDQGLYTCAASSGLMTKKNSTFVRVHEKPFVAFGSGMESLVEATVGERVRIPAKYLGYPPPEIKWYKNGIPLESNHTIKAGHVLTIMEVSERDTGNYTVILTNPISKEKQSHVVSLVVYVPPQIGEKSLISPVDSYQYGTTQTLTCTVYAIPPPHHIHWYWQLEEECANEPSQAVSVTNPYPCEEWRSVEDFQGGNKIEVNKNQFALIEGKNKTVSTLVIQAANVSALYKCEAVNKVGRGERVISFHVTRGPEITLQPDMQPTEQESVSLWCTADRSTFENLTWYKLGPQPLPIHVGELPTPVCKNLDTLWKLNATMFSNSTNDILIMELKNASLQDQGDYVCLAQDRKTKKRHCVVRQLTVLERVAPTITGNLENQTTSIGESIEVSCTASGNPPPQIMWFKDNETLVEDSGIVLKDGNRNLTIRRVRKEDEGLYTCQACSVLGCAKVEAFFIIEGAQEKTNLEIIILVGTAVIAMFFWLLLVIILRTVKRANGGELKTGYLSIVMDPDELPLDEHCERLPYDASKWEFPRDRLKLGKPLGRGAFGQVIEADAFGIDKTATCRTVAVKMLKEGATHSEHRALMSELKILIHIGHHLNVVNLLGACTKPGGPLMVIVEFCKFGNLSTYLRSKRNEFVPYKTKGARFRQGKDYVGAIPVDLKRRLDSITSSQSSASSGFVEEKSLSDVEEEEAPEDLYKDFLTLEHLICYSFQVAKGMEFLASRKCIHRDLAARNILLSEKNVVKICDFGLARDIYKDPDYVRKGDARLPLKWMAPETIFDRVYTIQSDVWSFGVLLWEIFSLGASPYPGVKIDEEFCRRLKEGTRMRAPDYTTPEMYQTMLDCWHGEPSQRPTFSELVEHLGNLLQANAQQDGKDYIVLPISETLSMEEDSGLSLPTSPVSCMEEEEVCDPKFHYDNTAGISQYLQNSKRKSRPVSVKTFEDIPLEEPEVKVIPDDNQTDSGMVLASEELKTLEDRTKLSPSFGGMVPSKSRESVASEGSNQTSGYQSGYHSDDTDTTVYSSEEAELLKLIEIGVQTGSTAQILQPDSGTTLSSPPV

Thromboxane A2 receptor = target: T3, Thromboxane A2 receptor (Homo sapiens, UniProt P21731); format: functional, cell-based
T3 sequence (P21731 whole entry): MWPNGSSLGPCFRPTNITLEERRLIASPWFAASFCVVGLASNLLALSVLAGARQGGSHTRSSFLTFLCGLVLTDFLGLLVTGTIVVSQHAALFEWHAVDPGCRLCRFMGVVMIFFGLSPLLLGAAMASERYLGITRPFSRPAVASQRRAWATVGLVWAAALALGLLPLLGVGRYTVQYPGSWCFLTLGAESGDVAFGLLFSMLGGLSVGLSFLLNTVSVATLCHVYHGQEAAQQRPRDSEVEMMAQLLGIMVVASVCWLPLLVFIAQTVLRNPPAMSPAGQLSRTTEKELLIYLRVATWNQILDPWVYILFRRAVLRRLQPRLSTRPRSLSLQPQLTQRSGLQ

Glucocorticoid receptor [7] = target: T1, Glucocorticoid receptor; format: functional; remark: listed apart in the source
[8] = target: Synaptic vesicular amine transporter (Rattus norvegicus, UniProt Q01827); format: functional
Synaptic vesicular amine transporter, sequence (Q01827 whole entry): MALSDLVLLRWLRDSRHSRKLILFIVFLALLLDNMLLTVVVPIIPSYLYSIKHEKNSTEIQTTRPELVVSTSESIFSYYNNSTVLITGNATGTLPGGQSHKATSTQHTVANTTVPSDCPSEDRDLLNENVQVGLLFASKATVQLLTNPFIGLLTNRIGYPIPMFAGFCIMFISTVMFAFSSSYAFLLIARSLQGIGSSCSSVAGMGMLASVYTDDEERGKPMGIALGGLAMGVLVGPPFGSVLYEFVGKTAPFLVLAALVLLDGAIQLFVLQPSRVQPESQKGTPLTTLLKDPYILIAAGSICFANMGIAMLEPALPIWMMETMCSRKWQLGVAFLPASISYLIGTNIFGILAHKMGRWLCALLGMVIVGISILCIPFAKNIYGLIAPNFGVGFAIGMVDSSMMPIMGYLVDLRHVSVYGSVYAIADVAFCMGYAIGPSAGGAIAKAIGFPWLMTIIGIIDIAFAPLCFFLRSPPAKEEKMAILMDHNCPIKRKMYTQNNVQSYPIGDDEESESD
Also: assay procedure not described here.

Structure (SMILES) | AC50 (Glucocorticoid receptor [1]) [µM] | AC50 [2] [µM] | AC50 [3] [µM] | AC50 (Estrogen receptor [4]) [µM] | AC50 (Estrogen receptor [5]) [µM] | AC50 [6] [µM] | AC50 (Thromboxane A2 receptor) [µM] | AC50 (Glucocorticoid receptor [7]) [µM] | AC50 [8] [µM]
CCOc1cc([C@@H](CS(C)(=O)=O)N2C(=O)c3cccc(NC(C)=O)c3C2=O)ccc1OC | > 30 | > 50 | > 30 | > 30 | > 30 | > 30 | > 30 | > 30 | > 30
CC(C)(O/N=C(\C(=O)N[C@@H]1C(=O)N2C(C(=O)[O-])=C(C[n+]3ccccc3)CS[C@H]12)c1csc(N)n1)C(=O)O [CEFTAZIDIME] | > 300 |  | > 3 | 48 | > 300 | > 300 | > 300 | > 300 | 
S=P(N1CC1)(N1CC1)N1CC1 [THIOTEPA] | > 30 |  | > 30 | > 30 | > 30 | > 30 | > 30 | > 30 | 

Source: ChEMBL document CHEMBL5291721, “A preclinical secondary pharmacology resource illuminates target-adverse drug reaction associations of marketed drugs” (Nat Commun, 2023)
